Source: US20100087439A1, “NOVEL […]/OR THERAPEUTIC AGENT FOR NEUROPATHIC PAIN” (ASTELLAS PHARMA INC., priority 2007, published 2010)
Read-outs that look alike come from different tables or passages of the source.

Tests used:
[1] = test system: L5/L6 spinal nerve ligation models; type: in vivo, male SD rats
Experimental: The evaluation of an analgesic effect on neuropathic pain was performed according to the method of Kim et al. using L5/L6 spinal nerve ligation models. That is, the left L5 and L6 sciatic nerves of male SD rats were tightly ligated with a silk thread under pentobarbital anesthesia, and thereafter, the evaluation was performed. As the assessment of pain behavior, a von Frey Test on the plantar surface of the animals was employed (Pain, vol. 50, pp. 355-363, 1992). That is, the plantar surface of the operated limb of the nerve ligation rat was stimulated by using von Frey Filament until a withdrawal response was observed, and the lowest amount of force (g) required to elicit withdrawal response was defined as a pain threshold. […] Each of a vehicle and diluted solutions obtained by diluting (±)-2-[(inden-7-yloxy)methyl]morpholine hydrochloride (indeloxazine hydrochloride), (+)-2-[(inden-7-yloxy)methyl]morpholine hydrochloride ((+)-indeloxazine hydrochloride), (−)-2-[(inden-7-yloxy)methyl]morpholine hydrochloride ((−)-indeloxazine hydrochloride), or duloxetine with a vehicle so as to give a dose of 30 mg/kg (calculated as a salt free form) was orally administered to rats in each group. The oral absorption of venlafaxine is poor, therefore, venlafaxine was intraperitoneally administered. As the vehicle, distilled water was used. A pain threshold was measured at 3 hours after administration in the case of duloxetine, and at 1 hour after administration in the case of the other compounds. An analgesic effect of each compound was examined based on recovery of the pain threshold in the each compound administration group compared with that in the vehicle administration group, as S. K. Joshi et al. described (Neuroscience, vol. 143, pp. 587-596, 2006).
The numerical values in the table indicate a mean value±standard error of the mean (SEM) of recovery ratios of thresholds of compounds when the pain threshold of the normal side paw is regarded as 100% and the pain threshold of the operated side paw is regarded as 0%.

CYP = CYP inhibitory activity; type: in vitro ADME; details: no method or isoform given
[2] = oral dose of 30 mg/kg (salt free form), 1 hour after administration, Student's t-test
[3] = 30 mg/kg (calculated as a salt free form), p.o., measured 1 hour after administration, mean ± SEM, hydrochloride

Compound	recovery in the pain threshold compared with the vehicle group (in words) [1, 2]	% Effect (recovery ratio of pain threshold; normal side paw = 100%, operated side paw = 0%) [1, 3]	other results
C1=Cc2cccc(OCC3CNCCO3)c2C1.Cl (racemic) [(±)-Indeloxazine hydrochloride, (±)-2-[(inden-7-yloxy)methyl]morpholine hydrochloride]	significant recovery in the pain threshold	–	% Effect (recovery ratio of pain threshold; normal side paw = 100%, operated side paw = 0%) ([1]; 30 mg/kg (calculated as a salt free form), p.o., measured 1 hour after administration, mean ± SEM): 94.3 ± 24.6 %
COc1ccc(C(CN(C)C)C2(O)CCCCC2)cc1 (racemic) [Venlafaxine, (±)-1-[2-(dimethylamino)-1-(4-methoxyphenyl)ethyl]cyclohexanol, reference compound]	–	–	recovery in the pain threshold compared with the vehicle group (in words) ([1]; 30 mg/kg (salt free form), intraperitoneal, 1 hour after administration, Student's t-test): a significant recovery in the threshold was not observed
C1=Cc2cccc(OCC3CNCCO3)c2C1 (single isomer, unassigned; (+)) [(+)-2-[(inden-7-yloxy)methyl]morpholine]	–	–	CYP inhibitory activity (in words) (CYP): extremely weak CYP inhibitory activity
C1=Cc2cccc(OCC3CNCCO3)c2C1.Cl (single isomer, unassigned; (+)) [(+)-Indeloxazine hydrochloride, (+)-2-[(inden-7-yloxy)methyl]morpholine hydrochloride]	significant recovery in the pain threshold	94.5 ± 17.0 %	–
C1=Cc2cccc(OCC3CNCCO3)c2C1.Cl (single isomer, unassigned; (-)) [(−)-Indeloxazine hydrochloride, (−)-2-[(inden-7-yloxy)methyl]morpholine hydrochloride]	significant recovery in the pain threshold	115.7 ± 22.0 %	–
CNCC[C@H](Oc1cccc2ccccc12)c1cccs1 [Duloxetine, (S)—N-methyl-γ-(1-naphthalenyloxy)-2-thiophenepropanamine, reference compound]	–	–	% Effect (recovery ratio of pain threshold; normal side paw = 100%, operated side paw = 0%) ([1]; rat, in vivo): 49.3 ± 25.3%; recovery in the pain threshold compared with the vehicle group (in words) ([1]; rat, in vivo): a significant recovery in the threshold was not observed
